Results reported in patent US11530186B2, “Inhibitors for the β-catenin / T-cell factor protein-protein interaction” (H. LEE MOFFITT CANCER CENTER AND RESEARCH INSTITUTE, INC., priority 2018, dated 2022).
Read-outs that look alike come from different tables or passages of the source.

Target: T1, β-catenin/Tcf protein-protein interaction (Homo sapiens, UniProt P35222)
T1 construct: Wild-type β-catenin (residues 138-781) were cloned into a pET-28b vector; 6×histidine (C); made in house; host or cells: E. coli BL21 DE3
T1 sequence (P35222 138-781): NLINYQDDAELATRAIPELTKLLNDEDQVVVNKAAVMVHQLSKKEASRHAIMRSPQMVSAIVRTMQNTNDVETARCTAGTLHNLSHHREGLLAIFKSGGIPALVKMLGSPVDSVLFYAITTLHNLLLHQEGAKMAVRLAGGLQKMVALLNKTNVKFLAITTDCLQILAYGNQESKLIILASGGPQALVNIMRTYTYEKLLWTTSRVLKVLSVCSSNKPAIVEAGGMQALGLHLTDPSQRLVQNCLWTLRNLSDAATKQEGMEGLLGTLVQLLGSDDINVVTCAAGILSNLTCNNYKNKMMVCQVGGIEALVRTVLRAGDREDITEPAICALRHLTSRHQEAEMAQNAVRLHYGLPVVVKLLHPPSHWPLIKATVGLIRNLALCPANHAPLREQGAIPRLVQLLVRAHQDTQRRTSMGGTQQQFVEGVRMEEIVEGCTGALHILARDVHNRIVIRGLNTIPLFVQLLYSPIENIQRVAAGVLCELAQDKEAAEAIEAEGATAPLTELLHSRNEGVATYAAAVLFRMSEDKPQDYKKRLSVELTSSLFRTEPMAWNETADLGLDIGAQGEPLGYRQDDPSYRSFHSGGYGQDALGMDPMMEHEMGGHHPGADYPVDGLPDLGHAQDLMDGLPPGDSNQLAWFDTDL
Experiment: FP competitive inhibition assay
Type: binding
Protocol: Protein Expression and Purification. Wild-type β-catenin (residues 138-781) were cloned into a pET-28b vector carrying a C-terminal 6×histidine (Novagen) and transformed into E. coli BL21 DE3 (Novagen). Cells were cultured in LB medium with 30 μg/mL kanamycin until the OD600 was approximately 0.8, and then protein expression was induced with 400 μM of IPTG at 20° C. overnight. Cells were lysed by sonication. The proteins were purified by Ni-NTA affinity chromatography (30210, Qiagen) and dialyzed against a buffer containing 20 mM of Tris (pH 8.8), 100 mM NaCl, 10% glycerol, and 3 mM DTT. The purity of β-catenin was set to >95% as determined by SDS-PAGE gel analysis. Native non-denaturing gel electrophoresis experiment and the thermal-shift assay on an iCycler iQ Real Time Detection System (Bio-Rad) were performed for each purified protein. In the thermal shift assay, protein unfolding was evaluated through measuring the fluorescence changes of fluorescent dye Sypro Orange with purified β-catenin proteins. A temperature increment of 1° C./min was applied to monitor protein stability and detect protein aggregation. CD spectra were measured on a J-815 spectropolarimeter (Jasco). All spectra were recorded using a 1 mm path-length quartz cell. The CD spectra were averaged over three scans, and the wavelength was scanned from 260 to 190 nm in step of 1 nm. All spectra were recorded at room temperature, and the baseline was corrected by subtracting the CD spectra of a blank control containing all of the substances except protein. Samples were prepared at a concentration around 1-5 μM in a buffer of 10 mM potassium phosphate and 100 mM potassium fluoride at pH 7.0 to ensure that the transmission of light through the sample was not restricted. All proteins were stable, and no aggregation was observed under storage or assay conditions. Proteins were aliquoted and stored at −80° C. C-terminally fluorescein-labeled human Tcf4 (residues 7-51) was synthesized and HPLC purified with purity >95%. The structures were validated by LC/MS (liquid chromatography/mass spectrometry).
FP Assays. The procedures for the FP competitive inhibition assays have been described previously (Zhang, M.; Huang, Z.; Yu, B.; Ji, H. New homogeneous high-throughput assays for inhibitors of β-catenin/Tcf protein-protein interactions Anal. Biochem. 2012, 424, 57-63; Zhang, M.; Catrow, J. L.; Ji, H. High-throughput selectivity assays for small-molecule inhibitors of β-catenin/T-cell factor protein-protein interactions. ACS Med. Chem. Lett. 2013, 4, 306-311). Briefly, all of the tested compounds were prepared as 10 mM DMSO stocks. In the primary screen, the concentrations of the compounds and DMSO were set to 50 μM and 1% (v/v). Only the compounds which FP signal decreases were greater than 50% in the single-point β-catenin/Tcf assay were evaluated by counter screen. […] In the FP competitive inhibition assay, 10 nM human β-catenin and 2.5 nM of C-terminally fluorescein-labeled human Tcf4 were incubated in an assay buffer of 137 mM NaCl, 2.7 mM KCl, 10 mM Na2HPO4, 2 mM KH2PO4, 100 μg/mL of bovine γ-globulin, and 0.01% Triton-X100 for 15 min at 4° C. Bovine γ-globulin and Triton-X100 were included in the assay buffer to decrease the likelihood of compound acting by aggregate formation. Different concentrations of the tested compounds in the assay buffer were added to each test plate to make a final volume of 100 μL. Each assay plate was covered black and gently mixed on an orbital shaker at 4° C. for 1.5 h to reach equilibrium before the polarization values were read. The IC50 value was determined by nonlinear least-square analysis of GraphPad Prism 5.0. The Ki values were derived (Nikolovska-Coleska, Z.; Wang, R.; Fang, X.; Pan, H.; Tomita, Y.; Li, P.; Roller, P. P.; Krajewski, K.; Saito, N. G.; Stuckey, J. A.; Wang, S. Development and optimization of a binding assay for the XIAP BIR3 domain using fluorescence polarization. Anal. Biochem. 2004, 332, 261-273). […]

[1] = Assay 1, mean ± SD (n = 3), read-out: Ki ± SD, Assay 1
[2] = Assay 2, mean ± SD (n = 3), read-out: Ki ± SD, Assay 2
[3] = Assay 3, mean ± SD (n = 3), read-out: Ki ± SD, Assay 3
[4] = Assay 4, mean ± SD (n = 3), read-out: Ki ± SD, Assay 4

Row | SMILES | Ki [1] [µM] | Ki [2] [µM] | Ki [3] [µM] | Ki [4] [µM]
1 | Cc1ccc(CCc2c(CCc3nc4ccccc4s3)n(CCc3nn[nH]n3)c3ccc(C(=O)O)cc23)cc1 [Compound 28, 1-(2-(2H-tetrazol-5-yl)ethyl)-2-(2-(benzo[d]thiazol-2-yl)ethyl)-3-(4-methylphenethyl)-1H-indole-5-carboxylic acid] | 2.3 ± 0.54 | 0.87 ± 0.33 | – | –
2 | O=C(O)c1ccc2c(c1)c(CCc1ccc(Cl)cc1)c(CCc1nc3ccccc3[nH]1)n2CCc1nn[nH]n1 [Compound 29, 2-(2-(1H-benzo[d]imidazol-2-yl)ethyl)-1-(2-(2H-tetrazol-5-yl)ethyl)-3-(4-chlorophenethyl)-1H-indole-5-carboxylic acid] | 11 ± 1.8 | 5.2 ± 1.7 | – | –
3 | O=C(O)c1ccc2c(c1)c(CCc1ccc(Cl)cc1)c(CCc1nc3cc(Cl)ccc3s1)n2CCc1nn[nH]n1 [Compound 30, 1-(2-(2H-tetrazol-5-yl)ethyl)-2-(2-(5-chlorobenzo[d]thiazol-2-yl)ethyl)-3-(4-chlorophenethyl)-1H-indole-5-carboxylic acid] | 1.1 ± 0.27 | 1.6 ± 0.63 | 2.5 ± 1.5 | –
4 | COc1ccc2sc(CCc3c(CCc4ccc(Cl)cc4)c4cc(C(=O)O)ccc4n3CCc3nn[nH]n3)nc2c1 [Compound 31, 1-(2-(2H-tetrazol-5-yl)ethyl)-3-(4-chlorophenethyl)-2-(2-(5-methoxybenzo[d]thiazol-2-yl)ethyl)-1H-indole-5-carboxylic acid] | 2 ± 0.4 | 4.1 ± 0.6 | 4.1 ± 1.2 | 1.6 ± 0.12
5 | COCCOc1ccc2sc(CCc3c(CCc4ccc(Cl)cc4)c4cc(C(=O)O)ccc4n3CCc3nn[nH]n3)nc2c1 [Compound 32, 1-(2-(2H-tetrazol-5-yl)ethyl)-3-(4-chlorophenethyl)-2-(2-(5-(2-methoxyethoxy)benzo [d]thiazol-2-yl)ethyl)-1H-indole-5-carboxylic acid] | 6.1 ± 1.5 | 7.5 ± 1.9 | 3.7 ± 1.3 | –
6 | O=C(O)c1ccc2c(c1)c(CCc1ccc3ccccc3c1)c(CCc1nc3ccccc3s1)n2CCc1nn[nH]n1 [Compound 36, 1-(2-(2H-tetrazol-5-yl)ethyl)-2-(2-(benzo[d]thiazol-2-yl)ethyl)-3-(2-(naphthalen-2-yl)ethyl)-1H-indole-5-carboxylic acid] | 0.61 ± 0.065 | – | – | –
7 | O=C(O)CCn1c(CCc2nc3ccccc3s2)c(CCc2ccccc2)c2cc(C(=O)O)ccc21 [Compound 37, 2-(2-(Benzo[d]thiazol-2-yl)ethyl)-1-(2-carboxyethyl)-3-phenethyl-1H-indole-5 carboxylic acid] | 28 ± 6.8 | – | – | –
8 | O=C(O)CCn1c(CCc2nc3ccccc3s2)c(CCc2ccc(F)cc2)c2cc(C(=O)O)ccc21 [Compound 38, 2-(2-(benzo[d]thiazol-2-yl)ethyl)-1-(2-carboxyethyl)-3-(4-fluorophenethyl)-1H-indole-5-carboxylic acid] | 19 ± 2.8 | – | – | –
9 | O=C(O)CCn1c(CCc2nc3ccccc3s2)c(CCc2ccc(Cl)cc2)c2cc(C(=O)O)ccc21 [Compound 39, 2-(2-(benzo[d]thiazol-2-yl)ethyl)-1-(2-carboxyethyl)-3-(4-chlorophenethyl)-1H-indole-5-carboxylic acid] | 7.9 ± 1.5 | 1.4 ± 0.45 | – | –
10 | Cc1ccc(CCc2c(CCc3nc4ccccc4s3)n(CCC(=O)O)c3ccc(C(=O)O)cc23)cc1 [Compound 40, 2-(2-(benzo[d]thiazol-2-yl)ethyl)-1-(2-carboxyethyl)-3-(4-methylphenethyl)-1H-indole-5-carboxylic acid] | 5.8 ± 1.3 | – | – | –
11 | O=C(O)CCn1c(CCc2nc3ccccc3[nH]2)c(CCc2ccc(Cl)cc2)c2cc(C(=O)O)ccc21 [Compound 41, 2-(2-(1H-benzo[d]imidazol-2-yl)ethyl)-1-(2-carboxyethyl)-3-(4-chlorophenethyl)-1H-indole-5-carboxylic acid] | 36 ± 9.5 | 10 ± 2.2 | – | –
12 | Cc1ccc(CCc2c(CCc3nc4ccccc4[nH]3)n(CCC(=O)O)c3ccc(C(=O)O)cc23)cc1 [Compound 42, 2-(2-(1H-benzo[d]imidazol-2-yl)ethyl)-1-(2-carboxyethyl)-3-(4-methylphenethyl)-1H-indole-5-carboxylic acid] | 29 ± 3.3 | 2 ± 1.2 | – | –
13 | COCCOc1ccc2sc(CCc3c(CCc4ccc(Cl)cc4)c4cc(C(=O)NCc5ccc(Cl)cc5)ccc4n3CCc3nn[nH]n3)nc2c1 [Compound 46, 1-(2-(2H-tetrazol-5-yl)ethyl)-N-(4-chlorobenzyl)-3-(4-chlorophenethyl)-2-(2-(5-(2-methoxy-ethoxy)benzo[d]thiazol-2-yl)ethyl)-1H-indole-5-carboxamide] | 1.3 ± 0.4 | – | – | –
14 | COc1ccc2sc(CCc3c(CCc4ccc(Cl)cc4)c4cc(C(=O)Nc5ccc(Cl)cc5)ccc4n3CCc3nn[nH]n3)nc2c1 [Compound 47, 1-(2-(2H-tetrazol-5-yl)ethyl)-3-(4-chlorophenethyl)-N-(4-chlorophenyl)-2-(2-(5-methoxybenzo[d]thiazol-2-yl)ethyl)-1H-indole-5-carboxamide] | 7.4 ± 1.4 | 10 ± 0.66 | 2.1 ± 0.26 | 2.1 ± 0.27
15 | COc1ccc2sc(CCc3c(CCc4ccc(Cl)cc4)c4cc(C(=O)NCCc5ccc(Cl)cc5)ccc4n3CCc3nn[nH]n3)nc2c1 [Compound 49, 1-(2-(2H-tetrazol-5-yl)ethyl)-N,3-bis(4-chlorophenethyl)-2-(2-(5-methoxybenzo[d]thiazol-2-yl)ethyl)-1H-indole-5-carboxamide] | 0.75 ± 0.23 | 3.2 ± 0.24 | – | –
16 | COc1ccc2sc(CCc3c(CCc4ccc(Cl)cc4)c4cc(C(=O)NCCOc5ccc(Cl)cc5)ccc4n3CCc3nn[nH]n3)nc2c1 [Compound 50, 1-(2-(2H-tetrazol-5-yl)ethyl)-3-(4-chlorophenethyl)-N-(2-(4-chlorophenoxy)ethyl)-2-(2-(5-methoxybenzo[d]thiazol-2-yl)ethyl)-1H-indole-5-carboxamide] | 3.2 ± 0.28 | – | – | –
17 | COc1ccc2sc(CCc3c(CCc4ccc(Cl)cc4)c4cc(C(=O)NCc5ccccc5Cl)ccc4n3CCc3nn[nH]n3)nc2c1 [Compound 51, 1-(2-(2H-tetrazol-5-yl)ethyl)-N-(2-chlorobenzyl)-3-(4-chlorophenethyl)-2-(2-(5-methoxybenzo[d]thiazol-2-yl)ethyl)-1H-indole-5-carboxamide] | 3.6 ± 0.6 | 4.8 ± 0.84 | – | –
